Measured values reported in the CheMixHub viscosity set.

Test: xn = mol fraction of the nth substance listed

CCC(C)CO (stereo unspecified) + COc1ccccc1
viscosity [mPa·s], 101.33 kPa
Conditions	x2 = 0.1005	x2 = 0.2004	x2 = 0.3003	x2 = 0.4012	x2 = 0.5001	x2 = 0.6005	x2 = 0.6996	x2 = 0.8001	x2 = 0.9003
303.15 K	2.761	2.126	1.665	1.347	1.149	1.032	0.968	0.932	0.912
313.15 K	2.026	1.601	1.296	1.084	0.952	0.868	0.824	0.803	0.794
323.15 K	1.552	1.246	1.022	0.872	0.784	0.739	0.718	0.707	0.698

CCOC(=O)c1ccccc1 + COc1ccccc1
viscosity [mPa·s], 101 kPa
Conditions	x1 = 0.0786	x1 = 0.1616	x1 = 0.2448	x1 = 0.3356	x1 = 0.4336	x1 = 0.5357	x1 = 0.6386	x1 = 0.7505	x1 = 0.8709
303.15 K	0.973	1.026	1.085	1.156	1.229	1.323	1.416	1.521	1.631
308.15 K	0.896	0.949	1.007	1.071	1.143	1.224	1.311	1.404	1.504
313.15 K	0.805	0.856	0.908	0.963	1.026	1.101	1.174	1.256	1.342

COC(=O)c1ccccc1O + CS(C)=O
303.15 K, 101 kPa
Conditions	viscosity [mPa·s]
x1 = 0.1215	1.932
x1 = 0.1918	2.13
x1 = 0.2697	2.186
x1 = 0.3567	2.283
x1 = 0.5628	2.356
x1 = 0.6882	2.38
x1 = 0.8323	2.403

O=C(O)/C=C\C(=O)O + C[N+](C)(C)CCO.[Cl-]
viscosity [mPa·s], 101.3 kPa
Conditions	293.2 K	303.2 K	313.2 K
x2 = 0.49	–	8065	4196
x2 = 0.597	7984	4891	2579
x2 = 0.669	4183	2672	1488

Cc1cccc([N+](=O)[O-])c1 + Cc1ccc(C)cc1
308.15 K, 101.33 kPa
Conditions	viscosity [mPa·s]
x2 = 0.1004	1.322
x2 = 0.2046	1.122
x2 = 0.2963	1.004
x2 = 0.4016	0.908
x2 = 0.4954	0.846
x2 = 0.6076	0.768
x2 = 0.7023	0.706
x2 = 0.8036	0.649
x2 = 0.8975	0.6

Cc1ccccc1[N+](=O)[O-] + Cc1ccc(C)cc1
308.15 K, 101.33 kPa
Conditions	viscosity [mPa·s]
x2 = 0.1044	1.342
x2 = 0.2016	1.153
x2 = 0.2968	1.034
x2 = 0.4024	0.942
x2 = 0.4938	0.879
x2 = 0.6032	0.81
x2 = 0.6951	0.754
x2 = 0.8009	0.681
x2 = 0.8955	0.624

Cc1cccc([N+](=O)[O-])c1 + Cc1cccc(C)c1
308.15 K, 101.33 kPa
Conditions	viscosity [mPa·s]
x2 = 0.1017	1.33
x2 = 0.2062	1.133
x2 = 0.3032	1.014
x2 = 0.4055	0.926
x2 = 0.5001	0.861
x2 = 0.6028	0.785
x2 = 0.6999	0.72
x2 = 0.8043	0.653
x2 = 0.9007	0.59

Cc1ccccc1[N+](=O)[O-] + Cc1cccc(C)c1
308.15 K, 101.33 kPa
Conditions	viscosity [mPa·s]
x2 = 0.1014	1.358
x2 = 0.2022	1.154
x2 = 0.3044	1.027
x2 = 0.4036	0.938
x2 = 0.499	0.87
x2 = 0.6052	0.792
x2 = 0.6913	0.735
x2 = 0.8068	0.654
x2 = 0.8993	0.596

CCCCCN + Cc1ccccc1
303.15 K, 101 kPa
Conditions	viscosity [mPa·s]
x2 = 0.1128	0.556
x2 = 0.2313	0.5323
x2 = 0.3808	0.5104
x2 = 0.4933	0.5008
x2 = 0.5377	0.4969
x2 = 0.6473	0.4932
x2 = 0.7388	0.4938
x2 = 0.8447	0.4984
x2 = 0.9229	0.5071

CCOC(=O)c1ccccc1 + Cc1ccccc1
viscosity [mPa·s], 101 kPa
Conditions	298.15 K	303.15 K	313.15 K
x1 = 0.0488	–	0.577	0.504
x1 = 0.1223	–	0.652	0.562
x1 = 0.1524	0.6845	–	–
x1 = 0.1712	–	0.701	0.601
x1 = 0.2201	–	0.749	0.637
x1 = 0.2923	–	0.823	0.694
x1 = 0.3425	–	0.875	0.734
x1 = 0.3548	0.9076	–	–
x1 = 0.4176	–	0.954	0.795
x1 = 0.4918	–	1.035	0.858
x1 = 0.5675	–	1.123	0.926
x1 = 0.63	1.279	–	–
x1 = 0.6436	–	1.22	1.001
x1 = 0.7352	1.452	–	–
x1 = 0.7452	–	1.359	1.109
x1 = 0.8194	–	1.473	1.198
x1 = 0.8445	1.655	–	–
x1 = 0.8969	–	1.605	1.312
x2 = 0.2273	1.495	–	–
x2 = 0.5945	0.939	–	–
x2 = 0.8392	0.679	–	–

Cc1cccc([N+](=O)[O-])c1 + Cc1ccccc1
303.15 K, 101.33 kPa
Conditions	viscosity [mPa·s]
x1 = 0.201	0.63
x1 = 0.406	0.8
x1 = 0.603	1
x1 = 0.8	1.33

Cc1ccccc1[N+](=O)[O-] + Cc1ccccc1C
308.15 K, 101.33 kPa
Conditions	viscosity [mPa·s]
x2 = 0.1023	1.548
x2 = 0.2014	1.392
x2 = 0.3006	1.262
x2 = 0.4018	1.143
x2 = 0.5041	1.027
x2 = 0.6102	0.928
x2 = 0.7028	0.85
x2 = 0.8056	0.773
x2 = 0.9008	0.709
